According to patent US4001248A, “N-cycloalkylmethyl decahydroisoquinolines” (Eli Lilly and Company, priority 1974, dated 1977):
“And” between values parts separate entries of the source, which are not always exact repeats. Equal entries are not always repeated. Structures can show the parent of a compound that is named as a salt. Where two headings read alike, the source gives them in different places.

Assays:
[1] = test system: morphine induced Straub tail; test: blocking of morphine induced Straub tail in mice; format: in vivo; conditions: 50 mg./kg. subcutaneous, morphine 40 mg./kg. subcutaneous
Method: In this assay, a 40 mg./kg. dose of morphine was administered to mice 15 minutes prior to assay, and the test drug at various intervals before assay. Trans-dl-1 -cyclopropylmethyl-3a-(m-hydroxyphenyl)-1,2,3,3a,4,5,6,7,7a,8-decahydroisoquinoline maleate gave a 100 percent block of the Straubed tail effected by a subcutaneous injection of 40 mg./kg. of morphine when the test drug was given at a dose of 50 mg./kg. subcutaneously 15 minutes prior to assay, and 80 percent when given 30 minutes prior to assay. The l(-) isomer gave 100 percent blocking on the morphine-induced Straub tail at 50 and 20 mg./kg. doses 15 and 30 minutes before assay.

rat tail jerk = rat tail jerk assay (increase in reaction time over control); format: in vivo
Excerpt: The compounds of this invention are also active in the rat tail jerk assay, another standard pharmacologic test for analgesic activity of the opiate-type. Such activity is manifested as an increase in the reaction time of the animal in removing (jerking) its tail from a nearby heat stimulus (a resistance wire) after drug administration compared to control time (no drug administered). Table 2 which follows gives the increased reaction times over control times produced by the compounds of this invention when administered subcutaneously. In Tables 2 and 3, column 1 gives the name of the compound; column 2, the dose; column 3, time of observation after administration of the drug; column 4, the increase in reaction time above control in seconds; and column 5, the level of significance of the results ("p" value). […] All drugs were administered as aqueous solutions. More than one value for a given dose level indicates multiple determinations. The results are not averaged.

[2] = test system: writhing in mice induced by the intraperitoneal injection of acetic acid; test: mouse-writhing test (inhibition of writhing induced by intraperitoneal acetic acid); format: in vivo; conditions: for % Inhibition: reading at 0.5 hours; for ED50: Mus musculus, read-out: Median inhibiting dose (I.D.50)
Excerpt: In the Table, column 1 gives the name of the compund; column 2, the dosage in mg./kg. of mouse weight; column 3, the route of administration of the drug ("S.C." is subcutaneous and "or" is oral); and column 4, the percent inhibition found at the particular dose level. […] Median inhibiting doses (I.D.50) are also included in the Table.

morphine = test: modified rat tail jerk assay, antagonism of morphine; format: in vivo, rats; conditions: for minimal effective dose: Rattus norvegicus, morphine 5 mg./kg. subcutaneous
Method: The ability of the compounds of this invention to antagonize the action of morphine, an opiate, is shown by the following modification of the aforementioned rat tail jerk assay: The standard assay procedure is used with the exception that a 7 amps. current is used instead of a 6 amps. current in the hot wire to decrease the measurable agonist effects of the antagonist. The drugs under test are then administered to groups of rats at different dose levels at different times prior to test, with a 5 mg./kg. dose of morphine invariably being administered 10 minutes prior to test. Positive evidence of antagonism is a decreased reaction time over that to be expected from the morphine. […] Among the compounds of this invention, those in which R in Structure I is cyclopropylmethyl are the preferred antagonists, showing activity in the above test procedure. […] In a series of determinations, it was ascertained that the minimum subcutaneous dose necessary to reduce the analgesic effects of a 5 mg./kg. subcutaneous dose of morphine was in the range 2.5-5.0 mg./kg. and the minimum oral dose, 5-10 mg./kg.

Structure (SMILES): Oc1cccc([C@]23CCCC[C@@H]2CN(CC2CC2)CC3)c1 (stereo in doubt) [Trans-dl-1-cyclopropylmethyl-3a-(m-hydroxyphenyl)-1,2,3,3a,4,5,6,7,7a,8-decahydroisoquinoline maleate]
- block of the Straubed tail ([1]; 15 minutes prior): 100%
- block of the Straubed tail ([1]; 30 minutes prior): 80%
- Increase in Reaction Time Over Control (rat tail jerk; oral, 5 mg./kg., 15 min): 0 s
- Increase in Reaction Time Over Control (rat tail jerk; oral, 10 mg./kg., 15 min): .90 s
- Increase in Reaction Time Over Control (rat tail jerk; oral, 15 mg./kg., 15 min): .95 s
- Increase in Reaction Time Over Control (rat tail jerk; oral, 20 mg./kg., 30 min): 1.17 s
- Increase in Reaction Time Over Control (rat tail jerk; oral, 20 mg./kg., 45 min): 1.33 s
- Increase in Reaction Time Over Control (rat tail jerk; oral, 25 mg./kg., 15 min): 2.10 s
- Increase in Reaction Time Over Control (rat tail jerk; oral, 25 mg./kg., 30 min): .30 s
- Increase in Reaction Time Over Control (rat tail jerk; oral, 50 mg./kg., 10 min): 2.83 s and 2.73 s and 2.88 s
- Increase in Reaction Time Over Control (rat tail jerk; oral, 50 mg./kg., 15 min): 4.25 s and 4.92 s and 5.08 s
- Increase in Reaction Time Over Control (rat tail jerk; oral, 50 mg./kg., 60 min): 2.42 s
- Increase in Reaction Time Over Control (rat tail jerk; oral, 50 mg./kg., 90 min): 1.38 s
- Increase in Reaction Time Over Control (rat tail jerk; oral, 50 mg./kg., 120 min): 1.17 s
- Increase in Reaction Time Over Control (rat tail jerk; oral, 100 mg./kg., 5 min): .55 s
- Increase in Reaction Time Over Control (rat tail jerk; oral, 100 mg./kg., 10 min): 2.45 s
- Increase in Reaction Time Over Control (rat tail jerk; oral, 100 mg./kg., 15 min): 4.85 s and 7.46 s and 4.50 s
- Increase in Reaction Time Over Control (rat tail jerk; oral, 100 mg./kg., 15 min, 20 sec. cut off): 5.45 s
- Increase in Reaction Time Over Control (rat tail jerk; oral, 100 mg./kg., 30 min): 3.45 s and 4.05 s and 6.79 s and 4.38 s
- Increase in Reaction Time Over Control (rat tail jerk; oral, 100 mg./kg., 60 min): 2.05 s
- Increase in Reaction Time Over Control (rat tail jerk; oral, 200 mg./kg., 15 min, 20 sec. cut off): 7.25 s and 7.13 s
- Increase in Reaction Time Over Control (rat tail jerk; oral, 200 mg./kg., 30 min): 2.75 s and 1.42 s
- Increase in Reaction Time Over Control (rat tail jerk; oral, 200 mg./kg., 45 min): 5.79 s
- Increase in Reaction Time Over Control (rat tail jerk; oral, 300 mg./kg., 15 min): 7.75 s
- Increase in Reaction Time Over Control (rat tail jerk; subcutaneous, 0.5 mg./kg., 15 min): .75 s
- Increase in Reaction Time Over Control (rat tail jerk; subcutaneous, 1 mg./kg., 15 min): .50 s
- Increase in Reaction Time Over Control (rat tail jerk; subcutaneous, 2 mg./kg., 15 min): 2.21 s
- Increase in Reaction Time Over Control (rat tail jerk; subcutaneous, 3 mg./kg., 15 min): 2.04 s
- Increase in Reaction Time Over Control (rat tail jerk; subcutaneous, 7 mg./kg., 15 min): 4.25 s
- Increase in Reaction Time Over Control (rat tail jerk; subcutaneous, 20 mg./kg., 15 min): 5.17 s and 3.70 s
- Increase in Reaction Time Over Control (rat tail jerk; subcutaneous, 25 mg./kg., 15 min): 4.40 s
- Increase in Reaction Time Over Control (rat tail jerk; subcutaneous, 30 mg./kg., 15 min, 20 sec. cut off): 4.25 s
- Increase in Reaction Time Over Control (rat tail jerk; subcutaneous, 40 mg./kg., 15 min): 3.90 s
- Increase in Reaction Time Over Control (rat tail jerk; subcutaneous, 50 mg./kg., 5 min, 15 sec. cut off): 4.85 s
- Increase in Reaction Time Over Control (rat tail jerk; subcutaneous, 50 mg./kg., 10 min, 15 sec. cut off): 4.95 s
- Increase in Reaction Time Over Control (rat tail jerk; subcutaneous, 50 mg./kg., 10 min, 20 sec. cut off): 4.85 s
- Increase in Reaction Time Over Control (rat tail jerk; subcutaneous, 50 mg./kg., 15 min): 4.0 s and 5.98 s
- Increase in Reaction Time Over Control (rat tail jerk; subcutaneous, 50 mg./kg., 15 min, 15 sec. cut off): 6.50 s
- Increase in Reaction Time Over Control (rat tail jerk; subcutaneous, 50 mg./kg., 15 min, 20 sec. cut off): 6.08 s
- Increase in Reaction Time Over Control (rat tail jerk; subcutaneous, 50 mg./kg., 30 min): 5.75 s
- Increase in Reaction Time Over Control (rat tail jerk; subcutaneous, 50 mg./kg., 30 min, 15 sec. cut off): 5.10 s
- Increase in Reaction Time Over Control (rat tail jerk; subcutaneous, 50 mg./kg., 45 min): 3.00 s
- Increase in Reaction Time Over Control (rat tail jerk; subcutaneous, 50 mg./kg., 90 min): 1.85 s
- Increase in Reaction Time Over Control (rat tail jerk; subcutaneous, 50 mg./kg., 120 min): 2.45 s
- Increase in Reaction Time Over Control (rat tail jerk; subcutaneous, 50 mg./kg., 180 min): 1.80 s
- Increase in Reaction Time Over Control (rat tail jerk; subcutaneous, 60 mg./kg., 15 min, 20 sec. cut off): 4.40 s
- Increase in Reaction Time Over Control (rat tail jerk; subcutaneous, 100 mg./kg., 15 min): 4.15 s
- Increase in Reaction Time Over Control (rat tail jerk; subcutaneous, 200 mg./kg., 15 min): 5.65 s
- % Inhibition ([2]; 2 mg./kg. S.C.): 6%
- % Inhibition ([2]; 5 mg./kg. S.C.): 66%
- % Inhibition ([2]; 10 mg./kg. S.C.): 72%
- % Inhibition ([2]; 20 mg./kg. S.C.): 99%
- % Inhibition ([2]; 20 mg./kg. oral): 46%
- % Inhibition ([2]; 50 mg./kg. oral): 56%
- % Inhibition ([2]; 100 mg./kg. S.C.): 100%
- % Inhibition ([2]; 100 mg./kg. oral): 92%
- ED50 ([2]; sc, S.C.): 2 to 5 mg/kg
- ED50 ([2]; oral): 20 to 50 mg/kg
- blocking of the analgesic effect of morphine (morphine; 50 mg./kg. subcutaneous, 30 and 60 minutes prior, morphine 5 mg./kg.): very effectively blocked the analgesic effect of 5 mg./kg. of morphine
- minimal effective dose (morphine; sc, subcutaneous, read-out: minimum subcutaneous dose necessary to reduce the analgesic effects of morphine): 2.5 to 5 mg/kg
- minimal effective dose (morphine; oral, read-out: minimum oral dose necessary to reduce the analgesic effects of morphine): 5 to 10 mg/kg
- antagonism of morphine (morphine; dose not stated): antagonizes the effects of morphine
